Patent publication US20240415894A1, “MITOCHONDRIAL AUGMENTATION THERAPY WITH STEM CELLS ENRICHED WITH FUNCTIONAL MITOCHONDRIA” (Minovia Therapeutics Ltd., priority 2018, published 2024)

Test system: Mouse fibroblast cells (3T3)
Assay: ATP level in Rotenone-treated mouse fibroblast cells (ATPlite kit)
Assay type: cell-based
Settings: 0.5 μM Rotenone for 4 hours; vs control cells
Description: Mouse fibroblast cells (104, 3T3) were either not treated (control) or treated with 0.5 μM Rotenone (Rotenone, mitochondrial complex I irreversible inhibitor, CAS number 83-79-4) for 4 hours, washed, and further treated with 0.02 mg/ml mouse placental mitochondria (Rotenone+Mitochondria) for 3 hours. The cells were washed and ATP level was determined using the Perkin Elmer ATPlite kit (FIG. 2), as previously shown in WO 2016/135723.

C=C(C)[C@H]1Cc2c(ccc3c2O[C@@H]2COc4cc(OC)c(OC)cc4[C@@H]2C3=O)O1 [Rotenone]
decrease of ATP levels: about 50%
